IC50 and EC50 data for 16 molecules are collected here from US9371331B2, “Modulators of methyl modifying enzymes, compositions and uses thereof” (Constellation Pharmaceuticals, Inc., priority 2012, dated 2016).

One test deals with EZH2 (rPRC2) (Homo sapiens, UniProt Q15910). As to the kind of experiment: EZH2 assay: rPRC2, biotinylated oligonucleosomes, 3H SAM methyl transfer (FlashPlate scintillation). Particulars: biotinylated oligonucleosome substrate. It is filed as biochemical.
The subject of test [1] is H3K27me3 mark in HeLa cells. As to the kind of experiment: H3K27me3 MSD Hela Assay. It is filed as cell-based. Particulars: Homo sapiens, read-out: H3K27me3_MSD_HeLa_ (EC50). The protocol: Trypsinized HeLa cells were counted and diluted in 10% DMEM (Life Technologies, Cat. #10569) to 5000 cells/75 μL. Seventy-five […] of cells were place in each well of a 96-well flat-bottomed plate and incubated at 37° C. for 4 hours. Twenty-five μL of test compound (at various concentrations) was added to the cells and incubation continued at 37° C. for 96 hours. Media was then removed and the cells rinsed once with ice cold PBS. Forty μL of ice-cold MSD Buffer AT (10 mM HEPES, pH 7.9, 5 mM MgCl2, 0.25M sucrose, Benzonase (1:10000), 1% Triton X-100 supplemented with fresh 1× Protease Inhibitor cocktail and 1 mM 4-(2-Aminoethyl)benzenesulfonyl fluoride hydrochloride (AEBSF)) was added to each well and the plates placed on ice for 30 minutes. Ten μL of 5M NaCl was then added to each well and incubation on ice continued for another 15 minutes. The material in each well was suspended pipetting up and down and then transferred to a new 96 well plate. The emptied wells were rinsed with 150 uL ice-cold 20 mM Tris pH 7.5, 1 mM EDTA, 1 mM EGTA, supplemented with fresh 1× Protease Inhibitor cocktail and 1 mM AEBSF (“NO salt NO detergent buffer) and transferred to the respective wells in the new plate. Three hundred μL of NO Salt NO detergent buffer was then added to each well of lysates and the plates frozen at −80° C.
On the same day, an appropriate number of MSD standard bind 96-well plates were coated with 30 μL/well of total H3 capture antibody (Millipore. Cat #MAB3422) at 1 μg/mL concentration in PBS. The antibody solution was evenly distributed first by tapping gently on the sides of the plates and then by shaking the plates for a few minutes at 1000 rpm. Antibody coated plates were stored at 4° C. overnight.
The next day the lysates are thawed to RT. The antibody coated MSD plates are washed 3× with TBS-T (Tris-buffered saline (Fisher Scientific, Cat #BP2471-1)+0.2% Tween-20). One-hundred fifty μL of 5% Blocker A in TBS-T is added to each well. The wells are covered and shaken on a shaker at RT for one hour. The Blocker A step is repeated a second time. After removing the blocker, 25 μL of cell lysate is transferred into each antibody coated well. The plates are shaken for 2 hours at RT, the lysate removed and the plates again washed with Blocker A in TBS-T. Twenty-five μL of appropriate freshly prepared antibody mix (including both primary and secondary antibodies) is added to each well and the plates shaken for 1 hour at RT.
Both H3 antibodies were obtained from Cell Signalling (Cat #s 4499 and 9733). The goat anti-rabbit antibody was obtained from Meso-Scale Discovery (Cat #R32AB-1).
The antibody mix was then removed and the wells washed with Blocker A. One hundred-fifty μL of freshly prepared 1×MSD Read Buffer (Meso-Scale Discovery; Cat #R927C-2) was then added to each well and the plates read on a MSD Sector 2400 Plate Reader.
Data was analyzed using Assay Assistant (Constellation Pharmaceuticals In-house product) and Activity Base (IDBS Ltd, Surrey, UK) template. Data files were imported to Assay Assistant and assay conditions were specified. A unique Analysis ID was created and the data files exported to Activity Base. An analysis template was created on Activity Base to measure dose-dependent inhibition of H3K27me3 mark and cell viability respectively. Readout of DMSO wells were used to normalize the data. Resulting curves were fitted using Activity base software Model 205 (IDBS Ltd. Surrey, UK). The data was checked for quality, validated and integrated in excel format using SARview (IDBS Ltd, Surrey, UK).

The target of the next test is Y641N EZH2 (Homo sapiens, UniProt Q15910, Y641N). As to the kind of experiment: Y641N EZH2 assay: as EZH2 assay, with reconstituted H3K27Me2 oligonucleosomes as substrate. It is filed as biochemical.
The mark [2] stands for this setting: EZH2 IC50, wild-type EZH2 (rPRC2).
[3] abbreviates: Y641N EZH2 IC50, Y641N mutant EZH2, H3K27Me2 oligonucleosome substrate.
Where [4] appears, read: wild-type EZH2 (rPRC2), read-out: EZH2 IC50.
The mark [5] stands for this setting: Y641N mutant EZH2, H3K27Me2 oligonucleosome substrate, read-out: Y641N EZH2 IC50.

Where two headings read alike, the source gives them in different places. A value given as a limit tells only on which side of the number the result lay.

EZH2 (rPRC2), sequence (Q15910 whole entry): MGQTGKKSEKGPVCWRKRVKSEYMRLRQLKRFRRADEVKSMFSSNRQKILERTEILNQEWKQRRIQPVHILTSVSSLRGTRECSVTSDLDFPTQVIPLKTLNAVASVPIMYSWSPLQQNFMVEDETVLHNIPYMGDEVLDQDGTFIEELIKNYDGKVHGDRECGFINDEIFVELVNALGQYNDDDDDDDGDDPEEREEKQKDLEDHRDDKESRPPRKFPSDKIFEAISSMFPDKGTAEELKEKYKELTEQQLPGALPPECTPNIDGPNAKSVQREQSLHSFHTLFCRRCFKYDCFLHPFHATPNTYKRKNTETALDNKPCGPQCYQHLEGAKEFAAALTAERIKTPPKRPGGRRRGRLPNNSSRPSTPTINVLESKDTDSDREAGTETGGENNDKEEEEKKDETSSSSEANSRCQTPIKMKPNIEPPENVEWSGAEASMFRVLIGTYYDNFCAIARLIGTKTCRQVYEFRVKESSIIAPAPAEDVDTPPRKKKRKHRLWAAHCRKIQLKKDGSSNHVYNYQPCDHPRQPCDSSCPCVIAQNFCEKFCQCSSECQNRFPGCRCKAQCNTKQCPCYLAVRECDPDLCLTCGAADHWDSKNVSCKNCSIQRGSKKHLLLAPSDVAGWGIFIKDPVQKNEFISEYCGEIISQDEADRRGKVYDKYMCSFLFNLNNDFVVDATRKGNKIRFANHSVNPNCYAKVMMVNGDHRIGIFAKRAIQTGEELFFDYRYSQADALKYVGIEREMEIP
EZH2 (rPRC2), sequence (O75530 whole entry partner): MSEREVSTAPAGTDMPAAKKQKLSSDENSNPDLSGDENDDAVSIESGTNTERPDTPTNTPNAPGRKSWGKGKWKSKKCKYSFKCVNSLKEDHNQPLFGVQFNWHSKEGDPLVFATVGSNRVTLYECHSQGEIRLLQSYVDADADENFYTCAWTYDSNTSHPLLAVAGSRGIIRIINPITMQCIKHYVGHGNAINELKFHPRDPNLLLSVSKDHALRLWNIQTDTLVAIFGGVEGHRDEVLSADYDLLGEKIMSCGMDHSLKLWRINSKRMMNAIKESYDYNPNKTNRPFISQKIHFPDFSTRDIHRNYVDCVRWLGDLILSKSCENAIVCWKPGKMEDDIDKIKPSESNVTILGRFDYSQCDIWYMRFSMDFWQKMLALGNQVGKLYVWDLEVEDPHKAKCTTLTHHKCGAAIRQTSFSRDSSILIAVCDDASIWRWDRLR
EZH2 (rPRC2), sequence (Q15022 whole entry partner): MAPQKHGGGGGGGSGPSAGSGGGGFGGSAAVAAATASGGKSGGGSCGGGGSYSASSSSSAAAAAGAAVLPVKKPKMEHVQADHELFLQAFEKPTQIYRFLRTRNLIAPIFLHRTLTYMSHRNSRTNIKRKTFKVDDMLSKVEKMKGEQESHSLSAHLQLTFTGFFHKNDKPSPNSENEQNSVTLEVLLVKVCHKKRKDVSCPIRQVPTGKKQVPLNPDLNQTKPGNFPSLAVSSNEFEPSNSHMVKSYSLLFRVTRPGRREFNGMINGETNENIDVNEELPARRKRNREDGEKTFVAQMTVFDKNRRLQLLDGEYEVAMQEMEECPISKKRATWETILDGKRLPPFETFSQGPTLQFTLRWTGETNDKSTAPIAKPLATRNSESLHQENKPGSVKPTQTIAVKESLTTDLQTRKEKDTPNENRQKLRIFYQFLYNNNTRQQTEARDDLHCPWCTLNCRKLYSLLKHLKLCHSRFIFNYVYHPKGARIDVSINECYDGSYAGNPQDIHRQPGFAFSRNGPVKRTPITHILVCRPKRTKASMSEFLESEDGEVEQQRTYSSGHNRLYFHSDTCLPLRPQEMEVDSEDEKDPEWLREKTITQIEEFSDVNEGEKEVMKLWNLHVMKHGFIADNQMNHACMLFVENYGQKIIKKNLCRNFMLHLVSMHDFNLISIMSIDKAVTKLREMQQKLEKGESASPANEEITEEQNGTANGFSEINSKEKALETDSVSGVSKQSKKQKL
Y641N EZH2, sequence (Q15910 whole entry Y641N): as the sequence (Q15910 whole entry) above, with Y641N counted along it
Y641N EZH2, sequence (O75530 whole entry partner): as the sequence (O75530 whole entry partner) above
Y641N EZH2, sequence (Q15022 whole entry partner): as the sequence (Q15022 whole entry partner) above

As a reminder, the IC50 is the concentration that gives 50% inhibition. As usually defined, the EC50 is the concentration at which the effect is half-maximal. As for `COc1cc(C)[nH]c(=O)c1CNC(=O)c1c(C)n(C(C)c2ccccc2)c2cnccc12` (single isomer, unassigned) [Compound 258, (R or S)-N-((4-methoxy-6-methyl-2-oxo-1,2-dihydropyridin-3-yl)methyl)-2-methyl-1-(1-phenylethyl)-1H-pyrrolo[2,3-c]pyridine-3-carboxamide], the IC50 against EZH2 (rPRC2) (setting [2]) and against Y641N EZH2 (setting [3]) was below 100 nM throughout. Also, the EC50 in test [1] (HeLa, 96 h) is 400 to 2000 nM.

Take `COc1cc(C)[nH]c(=O)c1CNC(=O)c1c(C)n(C(C)CS(C)(=O)=O)c2ccccc12` (single isomer, unassigned) [Compound 279, (R or S)-N-((4-methoxy-6-methyl-2-oxo-1,2-dihydropyridin-3-yl)methyl)-2-methyl-1-(1-(methylsulfonyl)propan-2-yl)-1H-indole-3-carboxamide]: the IC50 against EZH2 (rPRC2) (setting [2]) is below 100 nM; at Y641N EZH2 (setting [3]), 100 to 1000 nM. In addition, the EC50 in test [1] (HeLa, 96 h) was 2000 to 10000 nM.

As to `COc1cc(C)[nH]c(=O)c1CNC(=O)c1c(C)n([C@H](C)[C@H](OC)C2CC2)c2ncccc12` (single isomer, unassigned) [Compound 286, 1-((1R or S, 2R or S)-1-cyclopropyl-1-methoxypropan-2-yl)-N-((4-methoxy-6-methyl-2-oxo-1,2-dihydropyridin-3-yl)methyl)-2-methyl-1H-pyrrolo[2,3-b]pyridine-3-carboxamide], the results for the IC50 against EZH2 (rPRC2) (setting [2]) and against Y641N EZH2 (setting [3]) were below 100 nM and 100 to 1000 nM, respectively. The concentration giving a half-maximal response (EC50) in test [1] (HeLa, 96 h) was in the range of 400 to 2000 nM.

As for `COc1cc(C)[nH]c(=O)c1CNC(=O)c1c(C)n(C(C)C2CCOCC2)c2ncncc12` (single isomer, unassigned) [Compound 319, (R or S)-N-((4-methoxy-6-methyl-2-oxo-1,2-dihydropyridin-3-yl)methyl)-6-methyl-7-(1-(tetrahydro-2H-pyran-4-yl)ethyl)-7H-pyrrolo[2,3-d]pyrimidine-5-carboxamide], the IC50 at EZH2 (rPRC2) (setting [2]) and at Y641N EZH2 (setting [3]) was below 100 nM each time. Further, in test [1] (HeLa, 96 h), the EC50 is below 400 nM.

As for `COc1ccc2c(C(=O)NCc3c(OC)cc(C)[nH]c3=O)c(C)n(C(C)C3CCOCC3)c2c1` (single isomer, unassigned) [Compound 321, (R or S)-6-methoxy-N-((4-methoxy-6-methyl-2-oxo-1,2-dihydropyridin-3-yl)methyl)-2-methyl-(1-(tetrahydro-2H-pyran-4-yl)ethyl)-1 H-indole-3-carboxamide], the half-inhibitory concentration (IC50) at EZH2 (rPRC2) (setting [2]) and on Y641N EZH2 (setting [3]) was below 100 nM throughout. The EC50 in test [1] (HeLa, 96 h) was below 400 nM.

Regarding `COc1cc(C)[nH]c(=O)c1CNC(=O)c1c(C)n(C(C)C2CCN(C(=O)OC(C)(C)C)CC2)c2ccccc12` (single isomer, unassigned) [Compound 327, (R or S)-tert-butyl 4-(1-(3-((4-methoxy-6-methyl-2-oxo-1,2-dihydropyridin-3-yl)methylcarbamoyl)-2-methyl-1H-indol-1-yl)ethyl)piperidine-1-carboxylate], the IC50 on EZH2 (rPRC2) (setting [2]) and on Y641N EZH2 (setting [3]) was below 100 nM each time. Also, the half-maximal effective concentration (EC50) in test [1] (HeLa, 96 h) is below 400 nM.

Turning to `Cc1cc(C)c(CNC(=O)c2c(C)n([C@H](C)c3ccccc3)c3nc(N4CCOCC4)ncc23)c(O)n1` [Compound 143, (R)—N-((2-hydroxy-4,6-dimethylpyridin-3-yl)methyl)-6-methyl-2-morpholino-7-(1-phenylethyl)-7H-pyrrolo[2,3-d]pyrimidine-5-carboxamide], the IC50 on EZH2 (rPRC2) (setting [2]) was below 100 nM; at Y641N EZH2 (setting [3]) it was 1000 to 10000 nM. Also, the EC50 in test [1] (HeLa, 96 h) is 2000 to 10000 nM.

As to `Cc1cc(C)c(CNC(=O)c2c(C)n([C@H](C)c3ccccc3)c3nc(N)ncc23)c(O)n1` [Compound 144, (R)-2-amino-N-((2-hydroxy-4,6-dimethylpyridin-3-yl)methyl)-6-methyl-7-(1-phenylethyl)-7H-pyrrolo[2,3-d]pyrimidine-5-carboxamide], the IC50 against EZH2 (rPRC2) (setting [2]) is below 100 nM; at Y641N EZH2 (setting [3]), 100 to 1000 nM. In addition, the EC50 in test [1] (HeLa, 96 h) was 2000 to 10000 nM.

Turning to `Cc1cc(C)c(CNC(=O)c2c(C)n(S(=O)(=O)c3ccccc3)c3ccccc23)c(O)n1` [Compound 145, N-((4,6-dimethyl-2-oxo-1,2-dihydropyridin-3-yl)methyl)-2-methyl-1-(phenylsulfonyl)-1H-indole-3-carboxamide], the IC50 on EZH2 (rPRC2) (setting [4]) was below 100 nM; on Y641N EZH2 (setting [5]), 100 to 1000 nM. The EC50 in test [1] (HeLa, 96 h) fell in the range of 2000 to 10000 nM.

As to `Cc1cc(C)c(CNC(=O)c2c(C)n([C@H](C)c3ccccc3)c3nc(N4CCNCC4)ncc23)c(O)n1` [Compound 169, (R)-N-((2-hydroxy-4,6-dimethylpyridin-3-yl)methyl)-6-methyl-7-(1-phenylethyl)-2-(piperazin-1-yl)-7H-pyrrolo[2,3-d]pyrimidine-5-carboxamide], the half-inhibitory concentration (IC50) at EZH2 (rPRC2) (setting [4]) is below 100 nM; at Y641N EZH2 (setting [5]), 100 to 1000 nM. The EC50 in test [1] (HeLa cells, MSD, 96 hours) was above 10000 nM.

As for `Cc1ccc(C)c(-n2c(C)c(C(=O)NCc3c(C)cc(C)[nH]c3=O)c3ccccc32)c1` [Compound 191, N-((4,6-dimethyl-2-oxo-1,2-dihydropyridin-3-yl)methyl)-1-(2,5-dimethylphenyl)-2-methyl-1H-indole-3-carboxamide], the half-inhibitory concentration (IC50) at EZH2 (rPRC2) (setting [4]) and at Y641N EZH2 (setting [5]) was below 100 nM throughout. Besides, in test [1] (HeLa cells, MSD, 96 hours), the EC50 lay within 2000 to 10000 nM.

Take `COCC(C)n1c(C)c(C(=O)NCc2c(OC)cc(C)[nH]c2=O)c2ccccc21` (stereo not drawn) [Compound 219, N-((4-methoxy-6-methyl-2-oxo-1,2-dihydropyridin-3-yl)methyl)-1-(1-methoxypropan-2-yl)-2-methyl-1H-indole-3-carboxamide]: the IC50 on EZH2 (rPRC2) (setting [2]) and against Y641N EZH2 (setting [3]) was below 100 nM each time. Also, the EC50 in test [1] (HeLa, 96 h) lay in the range of 400 to 2000 nM.

As to `COC(C)C(C)n1c(C)c(C(=O)NCc2c(C)cc(C)[nH]c2=O)c2cccnc21` (stereo not drawn) [Compound 241, N-((4,6-dimethyl-2-oxo-1,2-dihydropyridin-3-yl)methyl)-1-(3-methoxybutan-2-yl)-2-methyl-1H-pyrrolo[2,3-b]pyridine-3-carboxamide], the IC50 was below 100 nM against EZH2 (rPRC2) (setting [2]) and 100 to 1000 nM against Y641N EZH2 (setting [3]). For the same molecule, the EC50 in test [1] (HeLa, 96 h) fell in the range of 400 to 2000 nM.

For `COc1cc(C)[nH]c(=O)c1CNC(=O)c1c(C)n(C(C)C(OC)C2CC2)c2ncccc12` (stereo not drawn) [Compound 283, 1-(1-cyclopropyl-1-methoxypropan-2-yl)-N-((4-methoxy-6-methyl-2-oxo-1,2-dihydropyridin-3-yl)methyl)-2-methyl-1H-pyrrolo[2,3-b]pyridine-3-carboxamide], the IC50 on EZH2 (rPRC2) (setting [2]) is below 100 nM; on Y641N EZH2 (setting [3]), 100 to 1000 nM. The EC50 in test [1] (HeLa, 96 h) fell in the range of 400 to 2000 nM.

For `COC[C@@H](C)n1c(C)c(C(=O)NCc2c(OC)cc(C)[nH]c2=O)c2cncnc21` [Compound 303, (R)-N-((4-methoxy-6-methyl-2-oxo-1,2-dihydropyridin-3-yl)methyl)-7-(1-methoxypropan-2-yl)-6-methyl-7H-pyrrolo[2,3-d]pyrimidine-5-carboxamide], the IC50 on EZH2 (rPRC2) (setting [2]) is below 100 nM; at Y641N EZH2 (setting [3]), 100 to 1000 nM. Besides, the half-maximal effective concentration (EC50) in test [1] (HeLa, 96 h) lay in the range of 400 to 2000 nM.

In the case of `COc1cc(C)[nH]c(=O)c1CNC(=O)c1c(C)n(C(C)C2CCCNC2)c2ccccc12` (stereo not drawn) [Compound 315, N-((4-methoxy-6-methyl-2-oxo-1,2-dihydropyridin-3-yl)methyl)-2-methyl-1-(1-(piperidin-3-yl)ethyl)-1H-indole-3-carboxamide], the IC50 is below 100 nM against EZH2 (rPRC2) (setting [2]) and 100 to 1000 nM against Y641N EZH2 (setting [3]). Besides, in test [1] (HeLa, 96 h), the EC50 is above 10000 nM.
